Measurements reported in patent publication US9242951B2, “Covalent inhibition of bacterial quorum sensing” (priority 2009, dated 2016).
Like-named read-outs stand apart in the source and are kept apart here.

Experiments:
[1] = system: LasI reporter coupled to the luxCDABE luminescence system; assay: P. aeruginosa wild-type strain (PA01) QS inhibition assay (luminescence reporter); assay type: cell-based; conditions: for inhibition of lasI expression in PAO1-luxCDABE (virulence): FIG. 9; for IC50: Pseudomonas aeruginosa, PAO1, read-out: IC50, inhibition of luminescence in wild type PAO1 reporter strain
Protocol: P. aeruginosa Wild-Type Strain (PA01) QS Inhibition Assay.
The P. aeruginosa PA01 wild type strain harboring plasmid pKD201 containing a LasI reporter coupled to the luxCDABE luminescence system (Duan, K. & Surette, M. G. Environmental regulation of Pseudomonas aeruginosa PAO1 Las and Rhl quorum-sensing systems. J Bacteriol 189, 4827-36 (2007)), was incubated overnight in LB medium containing 300 micro-g/ml of trimethoprim. A 96-well black microtiter plate (Greiner) was prepared with the desired concentrations of inhibitors (up to 1 mM, above which growth inhibition was observed), and bacteria were added to reach a final absorbance density (OD600 nm) of 0.015. The plate was then incubated for a period of 12 hours at 37° C. During this time, luminescence measurements were performed at 10 minute intervals. The relative luminescence was then plotted against the added inhibitor concentration; IC50 values were calculated using Grafit 6.0 (Erithacus Software).

[2] = molecular target: T1, LasR (Pseudomonas aeruginosa, UniProt P25084); assay: E. coli DH5-alpha LasR agonist/antagonist assay (PlasI-lacZ, beta-galactosidase); assay type: cell-based, P. aeruginosa
T1 construct: expressed in transfected cells; host or cells: E. coli DH5-alpha (pJN105L + pSC11 PlasI-lacZ)
T1 sequence (P25084 whole entry): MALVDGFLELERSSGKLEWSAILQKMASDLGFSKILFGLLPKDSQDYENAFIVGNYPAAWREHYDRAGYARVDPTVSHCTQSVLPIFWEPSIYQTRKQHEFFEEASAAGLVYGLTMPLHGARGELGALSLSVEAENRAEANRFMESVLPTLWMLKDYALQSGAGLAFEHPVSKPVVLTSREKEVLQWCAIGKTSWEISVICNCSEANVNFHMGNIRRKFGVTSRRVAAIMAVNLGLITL
Protocol: E. coli DH5-Alpha LasR Agonist/Antagonist Assay.
E. coli DH5-alpha harboring the LasR expression vector. pJN105L, and a plasmid-borne PlasI-lacZ fusion (pSC11) (Lee, J. H., Lequette, Y. & Greenberg, E. P. Activity of purified QscR, a Pseudomonas aeruginosa orphan quorum-sensing transcription factor. Mol Microbiol 59, 602-9 (2006)) was used to quantify quorum sensing inhibition by measuring expression levels of beta-galactosidase. Bacteria were incubated overnight in LB medium containing 100 micro-g/mL of ampicillin and 15 micro-g/mL of gentamicin. The culture was diluted at a 1:10 ratio by volume with fresh medium and further incubated until an OD600 nm of 0.3 was reached. A 96 well microtiter plate (Greiner) was prepared with the desired concentrations of inhibitors and bacteria were added to reach a final absorbance density (OD600 nm) of 0.3. Expression was induced at the edition of L-(+)-arabinose (4 mg/mL) and the plates were incubated at 37° C. for a period of 4 hours (OD600 nm of 0.45-0.5). The cultures were then assayed for beta-galactosidase activity according to the Miller assay method^46: […] were transferred to clear 96-well microtiter plates and the OD600 was recorded. […] was then added to a polypropylene-based 96-well microtiter plate containing […] of 0.1% SDS (w/v). Wells were thoroughly rinsed by pipetation, after which the chloroform was allowed to settle. […] upper layer was transferred to a fresh 96-well microtiter plate and […]-beta-D-galactopyranoside (ONPG, 4 mg/mL in phosphate buffer of pH 7) were added. The plates were incubated 35 minutes at 28° C. The reaction was terminated with the addition of […] sodium carbonate solution, and absorption at two wavelengths (550 nm, 429 nm) was recorded. Miller units were calculated using standard methods (Miller, J. H. Experiments in Molecular Genetics. 352-355 (Cold Spring Harbor Laboratories, 1972)). For antagonist experiments, a final concentration of 50 nM 3-oxo-C12-HSL was used.

[3] = system: LasI reporter coupled to the luxCDABE luminescence system; assay: P. aeruginosa PAO-JP2 QS agonist/antagonist assay (luminescence reporter); assay type: cell-based; conditions: for IC50: Pseudomonas aeruginosa, read-out: IC50, 3-oxo-C12-HSL antagonist activity in PAO-JP2
Protocol: P. aeruginosa PAO-JP2 QS Agonist/Antagonist Assay.
PAO-JP2, a lasI/rhlI-deleted strain harboring plasmid pKD201 containing a LasI reporter coupled to the luxCDABE luminescence system (see above), was incubated overnight in LB medium containing 300 micro-g/ml of trimethoprim. A 96-well black microtiter plate (Greiner) was prepared as described for the PA01 inhibition assay. The relative luminescence was then plotted against the added inhibitor concentration; IC50 values were calculated using Grafit 6.0 (Erithacus Software). For antagonist experiments, a final concentration of 50 nM 3-oxo-C12-HSL was used.

[4] = molecular target: T2, LasR-LBD Cys79Ala mutant (Pseudomonas aeruginosa, UniProt P25084, C79A); assay: Expression of LasR-LBD Cys79Ala mutant in presence of probe, covalent labeling; assay type: binding, P. aeruginosa
T2 construct: His6; made in house; host or cells: bacteria (E. coli BL21 as for wild-type LasR-LBD, inferred)
T2 sequence (P25084 1-173 C79A): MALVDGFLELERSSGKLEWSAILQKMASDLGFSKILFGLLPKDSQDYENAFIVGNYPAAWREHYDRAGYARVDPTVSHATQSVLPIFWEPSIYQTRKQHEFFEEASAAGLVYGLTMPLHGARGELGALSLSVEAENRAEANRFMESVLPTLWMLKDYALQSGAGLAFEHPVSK

[5] = molecular target: T3, LasR-LBD Cys79Ser mutation (Pseudomonas aeruginosa, UniProt P25084, C79S); assay: Expression of LasR-LBD Cys79Ser mutant in presence of probe, covalent labeling; assay type: binding, P. aeruginosa
T3 construct: His6; made in house; host or cells: bacteria (E. coli BL21 as for wild-type LasR-LBD, inferred)
T3 sequence (P25084 1-173 C79S): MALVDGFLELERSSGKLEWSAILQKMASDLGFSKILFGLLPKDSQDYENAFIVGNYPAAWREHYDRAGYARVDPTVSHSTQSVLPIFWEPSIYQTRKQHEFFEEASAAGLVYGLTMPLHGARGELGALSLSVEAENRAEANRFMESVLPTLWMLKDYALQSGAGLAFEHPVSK

[6] = system: wild type P. aeruginosa PAO1 strain; assay: Biofilm formation of wild type PAO1 in microtiter plates; assay type: cell-based; conditions: 50 micro-M, 24 h, versus DMSO
Protocol: (§1) To assess whether the reactive probes inhibit QS-regulated activities, such as biofilm formation and pyocyanin production, the wild type P. aeruginosa PAO1 strain was incubated in the presence of itc-12 and 4-Br-PHL (both at 50 micro-M), or DMSO, as a control, in microtiter plates that allow analysis of 24 h biofilm formation and in vials allowing measurement of 36 h pyocyanin production. […] However, even a partial reduction in biofilm formation may be sufficient to render the bacteria vulnerable to host responses, as not only is total biofilm mass affected upon disruption of QS, but also is its architecture, its degree of porosity and its extent of flexibility and robustness.

[7] = molecular target: T4, LasR-LBD (Pseudomonas aeruginosa, UniProt P25084); assay: Expression of LasR-LBD in presence of probe; covalent labeling by LC-MS and soluble protein by SDS-PAGE; assay type: binding, P. aeruginosa; conditions: for covalent modification of purified LasR-LBD (LC-MS): 10-100 micro-M compound in bacterial growth culture; for soluble LasR-LBD obtained on expression in presence of compound: SDS-PAGE of purified protein
T4 construct: His6; made in house; host or cells: E. coli BL21 (pETM-11)
T4 sequence (P25084 1-173): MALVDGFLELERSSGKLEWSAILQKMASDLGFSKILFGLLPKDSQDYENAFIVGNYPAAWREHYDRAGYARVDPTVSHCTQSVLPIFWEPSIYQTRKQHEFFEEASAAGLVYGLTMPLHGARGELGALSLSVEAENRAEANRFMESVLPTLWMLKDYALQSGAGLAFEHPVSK
Protocol: All MS analyses were performed on a LCQ Fleet mass spectrometer (Thermo Scientific) with an ESI source. Spectra were collected in positive ion mode and analyzed by Xcalibur and Promass software (Thermo Scientific). For LC/MS analyses a Surveyor Plus HPLC System (Thermo Scientific) was used, equipped with a Luna C18, 5 μm (150×4.6 mm) column at a flow rate of 0.5 mL/min, using a mobile phase linear gradient of 0.1% aqueous formic acid (solvent A) and CH3CN containing 0.1% formic acid (solvent B).
The expression of full length LasR was previously found to yield largely insoluble protein in the presence or absence of the native ligand, 3-oxo-C12-HSL (Bottomley, M. J., Muraglia, E., Bazzo, R. & Carfi, A. Molecular insights into quorum sensing in the human pathogen Pseudomonas aeruginosa from the structure of the virulence regulator LasR bound to its autoinducer. J Biol Chem 282, 13592-600 (2007)). Therefore, expression was performed using a strain transformed with a pETM-11 vector encoding for a shortened, His6-tagged LasR construct, LasR-LBD (ligand-binding domain), spanning residues Met-1 to Lys-173. The plasmid was transferred into E. coli BL21 and cells were incubated in 1 mL rich LB medium for 1 hour. The cells were then grown on LB agar plates containing kanamycin (50 micro-g/mL). For expression, a single colony was selected and transferred into 5 mL of rich LB medium containing kanamycin and grown overnight. Proteins were expressed in the presence of either native 3-oxo-C12-HSL or different inhibitors and purified by Ni^2+ affinity chromatography as previously described (Bottomley, M. J., Muraglia, E., Bazzo, R. & Carfi, A. Molecular insights into quorum sensing in the human pathogen Pseudomonas aeruginosa from the structure of the virulence regulator LasR bound to its autoinducer. J Biol Chem 282, 13592-600 (2007), yielding ˜70 mg of purified protein per liter of LB medium using large scale expression conditions, and ˜0.5-1 mg of purified protein from 50 mL of LB medium using small scale expression conditions. The purification process was monitored by SDS-PAGE electrophoresis and the molecular mass of the purified proteins was confirmed by mass spectrometry.
1 mL of the overnight grown cell culture was used to inoculate 1 liter of rich LB medium containing kanamycin (50 micro-g/mL) and 10-100 micro-M of 3-oxo-C12-HSL or inhibitors 7a-c and 11a-g. Cells were grown to an optical density (OD600 nm) of 0.4, after which expression was induced at 21° C. by addition of 0.2 mM isopropyl 1-thio-beta-D-galactopyranoside (IPTG) and an additional amount of ligand/inhibitor was added to the media. After reaching an OD600 nm of 1.4 (approx. 6-8 hours), cells were centrifuged at 6000 rpm, washed and resuspended in lysis buffer containing 5 mM imidazole, 300 mM NaCl, 50 mM Tris-HCl, pH 8. Cells were ultrasonicated for 2 minutes at 70% amplitude for two cycles. The lysate was centrifuged at 12,000 rpm for 30 minutes, and the supernatants were purified by Ni^2+ affinity chromatography.
Small scale expression was performed in 50 mL volume following the previous procedure. Cells were harvested by chemical lysis, adding 1 mL of lysis buffer (5 mM imidazole, 300 mM NaCl, 0.2% (v/v) Triton X-100, 0.75 μg/mL DNase-I, 0.05 mM MgCl2, 0.01 mM CaCl2, 50 mM Tris-HCl, pH 8, and 0.01% (v/v) protein inhibitor cocktail), and incubated for 60 minutes at 37° C. Cell debris was removed by centrifugation at 4,000 rpm for 15 minutes. […]

[8] = system: wild type P. aeruginosa PAO1 strain; assay: Pyocyanin production of wild type PAO1; assay type: cell-based; conditions: 50 micro-M, 36 h, versus DMSO
Protocol: as §1

[9] = molecular target: T1, LasR; conditions: read-out: IC50 reported by Geske et al.; E. coli-based LasR antagonist assay, literature value; cited from earlier work

SMILES | IC50 [2] | IC50 [3] | covalent modification of purified LasR-LBD (LC-MS) [7] | IC50 [1] | further results
O=C(CCCCCCCCCS)CC(=O)NC1CCOC1=O (stereo not drawn) [thiol-11, 12-Mercapto-3-Oxo-N-(2-Oxotetrahydrofuran-3-yl)Dodecanamide] |  |  |  |  | inhibition of lasI expression in PAO1-luxCDABE (virulence) [1]: dose-dependent manner
O=C(CCCCCCCCNC(=O)CCl)CC(=O)N[C@H]1CCOC1=O [hal-11-Cl] | 3.1 ± 0.1 µM |  |  |  | 
O=C(CCCCCCCCCNC(=O)CCl)CC(=O)N[C@H]1CCOC1=O [hal-12-Cl] |  | 70 ± 27 µM |  |  | IC50 ([2]; antagonism of LasR activation by 50 nM 3-oxo-C12-HSL, E. coli reporter, read-out: IC50, E. coli-based LasR antagonist studies): 1.1 ± 0.1 µM
O=C(CCCCCCCCCN=C=S)CC(=O)NC1CCOC1=O (stereo not drawn) [itc-12, 12-isothiocyanato-3-oxo-N-(2-oxotetrahydrofuran-3-yl)dodecanamide] | 29.8 ± 0.5 µM | 134 ± 6 µM | covalently modified | 113 ± 19 µM | soluble protein, LasR-LBD Cys79Ala mutant [4]: Soluble protein was, however, obtained; covalent modification of LasR-LBD Cys79Ala mutant ([4]; data not shown): no covalent modification was detected; covalent modification of LasR-LBD Cys79Ser [5]: no covalent modification being observed; soluble protein, LasR-LBD Cys79Ser [5]: yielded expression of soluble protein; inhibition of biofilm formation [6]: significantly inhibited; agonism in PAO-JP2-based reporter ([3]; markedly reduced levels compared to natural autoinducer): partial agonism patterns; soluble LasR-LBD obtained on expression in presence of compound [7]: larger amounts of soluble LasR-LBD; inhibition of pyocyanin production [8]: significantly inhibited; inhibition of lasI expression in PAO1-luxCDABE (virulence) [1]: dose-dependent manner
[N-]=[N+]=NCCCCCCCCCC(=O)CC(=O)NC1CCOC1=O (stereo not drawn) [azido-C12, 12-azido-3-oxo-N-(2-oxotetrahydrofuran-3-yl)dodecanamide] |  |  | no covalently labeled product |  | inhibitory activity compared with itc-12 ([3]; data not shown): significantly lower than that of itc-12
O=C(Cc1ccc(Br)cc1)NC1CCOC1=O (stereo not drawn) [4-Br-PHL, 2-(4-bromophenyl)-N-(2-oxo-tetrahydrofuran-3-yl)-acetamide, reference compound] | 4.8 ± 0.5 µM | ~200 µM |  | ~250 µM | inhibition of biofilm formation [6]: significantly inhibited; IC50 [9]: 3.9 µM; soluble LasR-LBD obtained on expression in presence of compound [7]: no soluble LasR was observed; inhibition of pyocyanin production [8]: significantly inhibited
O=C(CCCCCCCCNC(=O)CBr)CC(=O)N[C@H]1CCOC1=O [hal-11-Br] | 26.8 ± 1.3 µM |  |  |  | 
O=C(CCCCCCCCN=C=S)CC(=O)NC1CCOC1=O (stereo not drawn) [itc-11, 11-isothiocyanato-3-oxo-N-(2-oxotetrahydrofuran-3-yl)undecanamide] | 39.1 ± 9.4 µM |  | covalently modified | ~300 µM | 
O=C(CCCCCCCCCCN=C=S)CC(=O)NC1CCOC1=O (stereo not drawn) [itc-13, 13-isothiocyanato-3-oxo-N-(2-oxotetrahydrofuran-3-yl)tridecanamide] | 19.2 ± 3.9 µM | 30 ± 7 µM |  | 45.2 ± 0.7 µM | 
